{
  "source": "paper PMC11123956",
  "about": "“Nobiletin Stimulates Adrenal Hormones and Modulates the Circadian Clock in Mice” (Nutrients, 2024)",
  "key": {"PDE3": {"system": "PDE3", "parameters": "method as in PMID 19906817", "settings": "cited from earlier work"}, "PDE7A": {"target": "T1, PDE7A (Homo sapiens, UniProt Q13946)", "T1 construct": "purchased Eurofins Panlabs Discovery Services Taiwan, Ltd. (contract assay); host or cells: insect Sf9 cells", "T1 sequence (Q13946 whole entry)": "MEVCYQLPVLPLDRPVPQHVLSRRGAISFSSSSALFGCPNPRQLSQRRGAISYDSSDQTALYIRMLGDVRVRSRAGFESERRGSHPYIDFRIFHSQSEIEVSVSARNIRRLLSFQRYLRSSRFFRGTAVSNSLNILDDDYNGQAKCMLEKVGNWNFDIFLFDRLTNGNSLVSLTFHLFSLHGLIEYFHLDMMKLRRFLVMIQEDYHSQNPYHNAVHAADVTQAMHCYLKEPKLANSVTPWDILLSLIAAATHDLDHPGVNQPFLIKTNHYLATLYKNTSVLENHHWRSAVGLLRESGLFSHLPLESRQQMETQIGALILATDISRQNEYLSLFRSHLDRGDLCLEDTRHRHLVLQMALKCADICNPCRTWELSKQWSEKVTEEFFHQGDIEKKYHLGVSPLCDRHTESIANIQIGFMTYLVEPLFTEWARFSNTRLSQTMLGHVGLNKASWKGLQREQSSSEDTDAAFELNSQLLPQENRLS", "experiment": "PDE enzyme  assay, PDE7A", "format": "biochemical", "method": "(§1) Enzyme assays for various subtypes of PDE (Table 1 and Figure 4) were conducted by Eurofins Panlabs Discovery Services Taiwan, Ltd. (New Taipei City, Taiwan). In the assays, five or six concentrations of nobiletin over five or six orders of magnitude were examined in experiments conducted in duplicate to determine the IC50 (concentration of nobiletin exerting half-maximal inhibition of control-specific activity). IC50 values were determined by nonlinear least squares regression analysis using MathIQTM (ID Business Solutions Ltd., Woking, UK). FAM-cAMP, FAM-cGMP (0.1 μM), and 100 μM [^3H]cGMP + cGMP were used for the substrate in the human recombinant insect Sf9 cells or Bovine retinal rod outer segments depending on the PDE subtype. The spectrofluorometric quantitation of fluorescein-AMP-IMAP, fluorescein-GMP-IMAP, or [^3H] guanosine was used depending on the PDE subtype. A known […] of each PDE was used as the positive control."}, "Per2 mRNA": {"system": "Per2 mRNA", "experiment": "Real-time RT-PCR of Per2 mRNA in peripheral tissues", "format": "in vivo, mice", "settings": "liver, an hour after treatment", "method": "Male C57BL/6J mice (7 weeks old) were purchased from Charles River Japan (Kanagawa, Japan) and used for the serum hormone assay and RT-PCR. Male ICR mice were purchased from Tokyo Laboratory Animals Science Co., Ltd. (Tokyo, Japan), and female PERIOD2::LUCIFERASE (PER2::LUC) knock-in mice (ICR background) bred at Waseda University were used for blood glucose measurements and in vivo imaging assays, respectively. The mice were all housed under conditions of controlled temperature (23 °C ± 3 °C), humidity (50% ± 20%), and lighting (lights on from 07:00 to 19:00 at Taisho Pharmaceutical Co., Ltd. or from 08:00 to 20:00 at Waseda University). In the 24 h cycle, Zeitgeber time 0 (ZT0) was designated as the time when the lights were turned on, and ZT12 was designated as the time when the lights were turned off. All the mice were given access to food and tap water ad libitum, and nobiletin (10–100 mg/kg; purchased from FUJIFILM Wako Pure Chemical Corporation, Osaka, Japan) was administered by intraperitoneal (i.p.) injection in the vehicle (10 mL/kg body weight) containing 0.5% carboxymethyl cellulose (CMC). Rolipram (PDE4 inhibitor, FUJIFILM Wako Pure Chemical Corporation) and SR1078 (RORα/γ agonist, FUJIFILM Wako Pure Chemical Corporation) were also used for the experiment at 10 mg/kg in 0.5% CMC [12]. Mice were euthanized by rapid decapitation for whole blood samples. […]"}, "PDE4B1": {"target": "T2, PDE4B1 (Homo sapiens, UniProt Q07343)", "T2 construct": "purchased Eurofins Panlabs Discovery Services Taiwan, Ltd. (contract assay); host or cells: insect Sf9 cells", "T2 sequence (Q07343 whole entry)": "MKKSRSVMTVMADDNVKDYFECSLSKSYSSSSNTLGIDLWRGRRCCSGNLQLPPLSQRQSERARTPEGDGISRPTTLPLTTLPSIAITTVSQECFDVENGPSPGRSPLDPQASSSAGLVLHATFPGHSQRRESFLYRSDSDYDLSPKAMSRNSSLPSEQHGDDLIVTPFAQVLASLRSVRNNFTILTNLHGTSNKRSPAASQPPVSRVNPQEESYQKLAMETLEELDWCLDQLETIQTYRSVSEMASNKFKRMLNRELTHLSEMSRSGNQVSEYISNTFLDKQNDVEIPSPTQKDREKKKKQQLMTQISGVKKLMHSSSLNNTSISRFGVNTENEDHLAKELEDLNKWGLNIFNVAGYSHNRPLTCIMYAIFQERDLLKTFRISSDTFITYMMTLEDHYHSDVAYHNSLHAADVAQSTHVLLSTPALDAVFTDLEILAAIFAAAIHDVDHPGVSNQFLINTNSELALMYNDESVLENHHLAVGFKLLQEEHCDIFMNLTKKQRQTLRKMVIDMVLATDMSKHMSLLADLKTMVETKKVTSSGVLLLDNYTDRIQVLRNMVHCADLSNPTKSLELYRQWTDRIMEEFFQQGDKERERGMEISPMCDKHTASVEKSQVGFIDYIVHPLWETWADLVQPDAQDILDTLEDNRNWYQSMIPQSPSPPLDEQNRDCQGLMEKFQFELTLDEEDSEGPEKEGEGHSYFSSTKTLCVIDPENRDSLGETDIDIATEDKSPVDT", "experiment": "PDE enzyme (kinase) assay, PDE4B1", "format": "biochemical", "method": "as §1\nFigure 4 PDE kinase assays and the acute clock gene expression changes by PDE4 inhibitor or ROR α/γ agonist. (A) Inhibitory effect of nobiletin on PDE4A1, 4B1, and 10A2. Various concentrations of nobiletin (1–100 μM) were used for IC50 determination (Table 1). Values represent the mean of two experiments. Positive controls were rolipram for PDE4A1 and 4B1 and papaverine for PDE10A2. […]"}, "Per1 mRNA": {"system": "Per1 mRNA", "experiment": "Real-time RT-PCR of Per1 mRNA in peripheral tissues", "format": "in vivo, mice", "method": "Male C57BL/6J mice (7 weeks old) were purchased from Charles River Japan (Kanagawa, Japan) and used for the serum hormone assay and RT-PCR. Male ICR mice were purchased from Tokyo Laboratory Animals Science Co., Ltd. (Tokyo, Japan), and female PERIOD2::LUCIFERASE (PER2::LUC) knock-in mice (ICR background) bred at Waseda University were used for blood glucose measurements and in vivo imaging assays, respectively. The mice were all housed under conditions of controlled temperature (23 °C ± 3 °C), humidity (50% ± 20%), and lighting (lights on from 07:00 to 19:00 at Taisho Pharmaceutical Co., Ltd. or from 08:00 to 20:00 at Waseda University). In the 24 h cycle, Zeitgeber time 0 (ZT0) was designated as the time when the lights were turned on, and ZT12 was designated as the time when the lights were turned off. All the mice were given access to food and tap water ad libitum, and nobiletin (10–100 mg/kg; purchased from FUJIFILM Wako Pure Chemical Corporation, Osaka, Japan) was administered by intraperitoneal (i.p.) injection in the vehicle (10 mL/kg body weight) containing 0.5% carboxymethyl cellulose (CMC). Rolipram (PDE4 inhibitor, FUJIFILM Wako Pure Chemical Corporation) and SR1078 (RORα/γ agonist, FUJIFILM Wako Pure Chemical Corporation) were also used for the experiment at 10 mg/kg in 0.5% CMC [12]. Mice were euthanized by rapid decapitation for whole blood samples.\nFigure 3 Nobiletin stimulated adrenaline and corticosterone secretion, and induced acute clock gene expression changes. (A–C) Mice received intraperitoneal injections of control (0.5% CMC) or nobiletin (10 or 100 mg/kg) at ZT3. (A) Serum corticosterone at 1 h after treatment (n = 6 in each). $$$ p < 0.001 by Tukey’s multiple comparisons test. (B) Serum corticosterone and adrenaline at 1, 2, and 4 h after treatment (n = 4 in each). # p < 0.05 vs. control at each time point by Mann–Whitney test; ** p < 0.01 vs. control at each time point by Student’s t-test. (C) Blood glucose changes after treatment (n = 9 in each). Statistics of 2-way repeated ANOVA are indicated on the graph. […]"}},
  "data": [
    {"smiles": "COc1ccc(-c2cc(=O)c3c(OC)c(OC)c(OC)c(OC)c3o2)cc1OC", "note": "[nobiletin]", "values": [
      {"measurement": "IC50", "setting": "PDE3", "value": 10.4, "unit": "µM"},
      {"measurement": "IC50", "setting": "PDE7A", "value": 11.9, "unit": "µM"},
      {"measurement": "Per2 expression", "setting": "Per2 mRNA", "value": "decreased significantly"},
      {"measurement": "IC50", "setting": "PDE4B1; IC50, PDE4B1, bound stated in the discussion", "value": "≤ 6.03", "unit": "µM"},
      {"measurement": "IC50", "setting": "PDE4B1; IC50 Dose, PDE4B1, duplicate", "value": 6.03, "unit": "µM"},
      {"measurement": "Per1 mRNA upregulation", "setting": "Per1 mRNA; 4 h after treatment (stomach)", "value": "diminished"},
      {"measurement": "Per1 mRNA", "setting": "Per1 mRNA; kidney, liver (1 h) and stomach (2 h) after treatment", "value": "upregulated"}
    ]}
  ]
}
